# Measurements taken from the PolyMetriX glass transition set.
row,glass transition temperature [°C],Compound
1,143.00,*Cc1ccc(COC(=O)c2cccc(C(=O)O*)c2)cc1 (repeat unit)
2,175.00,*c1ccc(OCCCCCCN(CC)c2ccc(C(C#N)=C(C#N)C#N)cc2)c(-c2cc(-c3ccccc3)c3cc(Oc4ccc5nc(*)cc(-c6ccccc6)c5c4)ccc3n2)c1 (repeat unit)
3,120.00,*C(=O)Nc1ccc(N2C(=O)CC(N3C(=O)c4ccc(*)cc4C3=O)C2=O)cc1 (repeat unit)
4,224.00,*c1cccc(N2C(=O)c3ccc(Oc4cccc(Oc5ccc6c(c5)C(=O)N(*)C6=O)c4)cc3C2=O)c1 (repeat unit)
5,29.00,*CC(CCCCCCOc1ccc(/N=N/c2ccc(C)cc2)cc1)COC(=O)CCCCC(=O)O* (repeat unit)
6,144.00,*Nc1cc([N+](=O)[O-])c(NC(=O)CCCCCCCCCCC(*)=O)cc1/C=C/c1ccc(N(C)C)cc1 (repeat unit)
7,56.50,*Oc1ccc(C(C)(C)c2ccc(OC(=O)OCCCCOC(*)=O)cc2)cc1 (repeat unit)
8,171.00,*Oc1cccc2c(OC(=O)c3ccc(Oc4ccc(C(*)=O)cc4)cc3)cccc12 (repeat unit)
9,100.00,*CC(*)c1ccc(C(C)(O)CCCCC)cc1 (repeat unit)
10,256.90,*c1cc(C(=O)NCCCCCC)cc(N2C(=O)c3ccc(-c4ccc5c(c4)C(=O)N(*)C5=O)cc3C2=O)c1 (repeat unit)
11,61.00,*C/C=C/COC(=O)C(Cc1ccccc1)NC(=O)CCCCC(=O)NC(Cc1ccccc1)C(=O)O* (repeat unit)
12,130.00,*CCCCCCCCCCCCNC(=O)c1ccc(C(=O)N*)cc1 (repeat unit)
13,197.00,*c1ccc(/C=C(\c2ccc(OC)cc2)c2ccc(/C(=C/c3ccc(N(*)c4ccccc4)cc3)c3ccc(OC)cc3)cc2)cc1 (repeat unit)
14,77.00,*CC1CCC(COC(=O)C2CCC(C(=O)O*)CC2)CC1 (repeat unit)
15,176.00,*C1C(*)C2CC1C(COCc1ccccc1)C2COCc1ccccc1 (repeat unit)
16,263.00,*c1ccc(Oc2ccc(-c3nc4cc(Oc5ccc6nc(-c7ccccc7)c(*)nc6c5)ccc4nc3-c3ccccc3)cc2)cc1 (repeat unit)
17,-5.50,*O[Si](C)(C)O[Si](*)(C)CCCCOc1ccc(-c2ccc(C#N)cc2)cc1 (repeat unit)
18,304.00,*c1ccc(-c2ccc(-n3c(=O)c4c(C(F)(F)F)c5c(=O)n(*)c(=O)c5c(C(F)(F)F)c4c3=O)cc2C(F)(F)F)c(C(F)(F)F)c1 (repeat unit)
19,-1.00,*CCCCCCCCCC(c1ccc(O)cc1)C(*)c1ccc(O)cc1C (repeat unit)
20,317.00,*c1cccc(-c2nc3cc(-c4ccc5nc(*)c(-c6ccc7ccccc7c6)nc5c4)ccc3nc2-c2ccc3ccccc3c2)c1 (repeat unit)
21,238.00,*C(=O)c1ccc2c(c1)C(=O)N(c1ccc(-c3ccc(NC(=O)c4cccc(C(=O)Nc5ccc(-c6ccc(N7C(=O)c8ccc(*)cc8C7=O)cc6)cc5)c4)cc3)cc1)C2=O (repeat unit)
22,102.00,*CC(*)(C)C(=O)OCCCCCCOc1ccc(C(=O)Oc2ccc3ccc(=O)oc3c2)cc1 (repeat unit)
23,15.00,*CCCCCCOC(=O)OCCOC(=O)OCCCCCCOc1ccc(C(=O)c2ccc(O*)cc2)cc1 (repeat unit)
24,88.00,*CCCCCCNC(=O)CC(C)c1ccc(C(C)CC(=O)N*)cc1 (repeat unit)
25,31.00,*CC(*)(C)C(=O)OCCCCCCc1ccc(/C(C)=C/c2ccc(OC)cc2)cc1 (repeat unit)

row,glass transition temperature [°C],Compound
1,217.00,*c1ccc(-c2nc3cc(-c4ccc5nc(-c6ccccc6)c(-c6ccc(-n7c(=O)c8cc9c(=O)n(*)c(=O)c9cc8c7=O)cc6)nc5c4)ccc3nc2-c2ccccc2)cc1 (repeat unit)
2,134.00,*/C=C/c1sc(-c2ccc(-c3ccc(-c4ccc(-c5sc(/C=C/C6=CC(=C(C#N)C#N)C=C(*)O6)c(CCCCCC)c5CCCCCC)s4)s3)s2)c(CCCCCC)c1CCCCCC (repeat unit)
3,105.00,*CCOCCOCCN1C(=O)c2ccc(C(=O)Oc3ccc(OC(=O)c4ccc5c(c4)C(=O)N(*)C5=O)cc3)cc2C1=O (repeat unit)
4,34.5,*CC(*)(C)C(=O)OCc1ccc(Cl)c(Cl)c1 (repeat unit)
5,274.00,*c1ccc(Oc2ccc3ccccc3c2-c2c(Oc3ccc(N4C(=O)c5ccc(NC(=O)Nc6ccc(Oc7ccc(NC(=O)Nc8ccc9c(c8)C(=O)N(*)C9=O)cc7)cc6)cc5C4=O)cc3)ccc3ccccc23)cc1 (repeat unit)
6,92.00,*CCCCCCCCc1nc2cc(NC(=O)CCCCC(=O)Nc3ccc4oc(*)nc4c3)ccc2o1 (repeat unit)
7,250.00,*C(=O)Nc1cc(C(c2cc(C)c(C)c(NC(=O)c3ccc4c(c3)C(=O)N(c3cccc5c(N6C(=O)c7ccc(*)cc7C6=O)cccc35)C4=O)c2)(C(F)(F)F)C(F)(F)F)cc(C)c1C (repeat unit)
8,182.00,*c1ccc2c(c1)C(=O)N(c1ccc(OC(CCCCCC)COc3ccc(N4C(=O)c5ccc(C(*)(C(F)(F)F)C(F)(F)F)cc5C4=O)cc3)cc1)C2=O (repeat unit)
9,59.60,*c1ccc(-c2sc(-c3cc(CCCCCCCCCCCC)c(*)s3)cc2CCCCCCCCCCCC)cc1 (repeat unit)
10,155.00,*CCCCCOc1ccc(NC(=O)c2cccc(C(=O)Nc3ccc(O*)cc3)c2)cc1 (repeat unit)
11,-66.00,*OC(C)CCC(C)OC(=O)CCCCCCCCC(*)=O (repeat unit)
12,260.00,*c1cccc(C(=O)Nc2ccc(Oc3ccc(Oc4ccc(Oc5ccc(NC(=O)c6cccc(N7C(=O)c8ccc(-c9cccc%10c9C(=O)N(*)C%10=O)cc8C7=O)c6)cc5)cc4)cc3)cc2)c1 (repeat unit)
13,167.00,*c1ccc2c(c1)C(=O)N(c1ccc(OCCCCCCOc3ccc(N4C(=O)c5ccc(C(*)(C(F)(F)F)C(F)(F)F)cc5C4=O)cc3)cc1)C2=O (repeat unit)
14,356.00,*c1ccc(Cc2ccc(N3C(=O)c4c(c(-c5ccccc5)c(-c5ccc(Oc6ccc(-c7c(-c8ccccc8)c8c(c(-c9ccccc9)c7-c7ccccc7)C(=O)N(*)C8=O)cc6)cc5)c(-c5ccccc5)c4-c4ccccc4)C3=O)cc2)cc1 (repeat unit)
15,72.60,*/C=C/C1CC(*)C(C(=O)Oc2ccccc2)C1 (repeat unit)
16,93.00,*Oc1ccc(OC(=O)c2ccc(C(*)=O)cc2Oc2ccc(C(C)(C)c3ccccc3)cc2)cc1 (repeat unit)
17,265.00,*c1ccc(-c2ccc(Oc3ccc(C4(C)CC(C)(C)c5ccc(Oc6ccc(-c7ccc(-n8c(=O)c9cc%10c(=O)n(*)c(=O)c%10cc9c8=O)cc7)cc6C(F)(F)F)cc54)cc3)c(C(F)(F)F)c2)cc1 (repeat unit)
18,270.00,*CC(*)(C)C(=O)Oc1ccc(C(=O)c2ccccc2)c(O)c1 (repeat unit)
19,80.00,*O[Si](C)(C)COC(=O)CCCCCCCCC(=O)Oc1ccc(S(=O)(=O)c2ccc(Oc3ccc(/C=C4\CCC/C(=C\c5ccc(Oc6ccc(S(=O)(=O)c7ccc(OC(=O)CCCCCCCCC(=O)OC[Si](*)(C)C)cc7)cc6)cc5)C4=O)cc3)cc2)cc1 (repeat unit)
20,215.00,*C(=O)Nc1ccc(-c2cc(-c3ccccc3)cc(-c3ccc(NC(=O)c4ccc5c(c4)C(=O)N(c4ccc(NC(=O)Nc6ccc(N7C(=O)c8ccc(*)cc8C7=O)cc6)cc4)C5=O)cc3)n2)cc1 (repeat unit)
21,195.00,*Oc1ccc(C2(c3ccc(Oc4ccc(/C=C/C(=O)c5ccc(*)cc5)cc4)cc3)c3ccccc3-c3ccccc32)cc1 (repeat unit)
22,337.00,*c1ccc(NC(=O)c2ccc(NC(=O)c3ccc([Si](C)(C)c4ccc(C(=O)Nc5ccc(C(=O)Nc6ccc(-c7sc(*)c(-c8ccccc8)c7-c7ccccc7)cc6)cc5)cc4)cc3)cc2)cc1 (repeat unit)
23,268.00,*c1ccc(Oc2ccc(-c3cc(-c4cccc(-c5cc(*)c6ccccc6n5)c4)nc4ccccc34)cc2)cc1 (repeat unit)
24,40.00,*OC(COC(=O)Nc1ccc(Cc2ccc(NC(*)=O)cc2)cc1)c1ccco1 (repeat unit)

row,Compound,glass transition temperature [°C]
1,*=NP(=NP(=NC(=*)Oc1ccc(C(=O)OC)cc1)(Oc1ccc(C(=O)OC)cc1)Oc1ccc(C(=O)OC)cc1)(Oc1ccc(C(=O)OC)cc1)Oc1ccc(C(=O)OC)cc1 (repeat unit),52.00
2,*CC(COC(C)(C)C)O* (repeat unit),-24.00
3,*C1C=C(CCCCCC)C(*)S1 (repeat unit),58.1
4,*/C=C/C1CC(*)C(C(=O)OC)C1 (repeat unit),65.00
5,*CC(*)CCCCCCCCCCCC (repeat unit),10.00
6,*CC(CSC)O* (repeat unit),-37.00
7,*CC(*)(C)C(=O)OCC#N (repeat unit),91.00
8,*CC(C)(C)CO* (repeat unit),-50.00
9,*CC(*)CCI (repeat unit),70.00
10,*CC(*)C(=O)Oc1cccc(C)c1 (repeat unit),24.50
11,*OC(CCl)C(*)CCl (repeat unit),95.00
12,*CC(*)(C#N)C(=O)OCC (repeat unit),115.00
13,*CC(*)OCC(C)(C)CC (repeat unit),9.00
14,*OC(COCCOC)COC(*)=O (repeat unit),-50.00
15,*Nc1cccc2c(N[Se]*)cccc12 (repeat unit),53.00
16,*CC(C)(CO*)COCCC#N (repeat unit),-52.00
17,*CC(*)OC(=O)c1ccc(CC)cc1 (repeat unit),57.00
18,*OC(CCCCCC)CC(*)=O (repeat unit),-47.00
